{"source": "paper PMC3996151", "about": "“Safety and pharmacological characterization of the molecular tweezer CLR01 – a broad-spectrum inhibitor of amyloid proteins’ toxicity” (BMC Pharmacology & Toxicology, 2014)", "origin": "cited, not measured here", "system": "α-synuclein (α-syn)", "parameters": "method as in PMID 22373667", "details": "up to 10 μM in the water environment; cited from earlier work"}
{"smiles": "O=P(O)(O)Oc1c2c(c(OP(=O)(O)O)c3c1C1CC3c3cc4c(cc31)C1CC4c3ccccc31)C1CC2c2cc3c(cc21)C1CC3c2ccccc21", "note": "[CLR01]", "values": [{"measurement": "Effect in zebrafish model of α-syn toxicity", "result": "prevented deformation and mortality"}]}
